# How the values were obtained:
# [1] = tested on: CMK (human megakaryocytic leukemia) cells; test: High throughput screen for inducers of megakaryocyte polyploidization; assay type: cell-based; conditions: 10 μM, 72 hours, Hoescht stain, high content imaging
# Method: In collaboration with the Broad Institute, a high throughput screen for small molecules was conducted to identify small molecules that preferentially induce polyploidization or differentiation of megakaryocytes. We screened 10,000 compounds from the Broad's extensive collection of small molecules (including known bioactives, kinase and HDAC inhibitors, and natural products) to identify inducers of megakaryocyte polyploidization. The screen was performed in the following manner: 1) 4,000 CMK (human megakaryocytic leukemia) cells were plated into each well of a 384-well plate, 2) 100 n1 of compounds (yielding a final concentration of 10 μM) were pinned into the wells, 3) plates were incubated at 37° C. for 72 hours, 4) cells were fixed and stained with Hoescht, and 5) plates were imaged using an ImageXpressMICRO high content imager with 20× objective. Nine images per well were collected. 6) Data were analyzed using both MetaXpress software and “Cell Profiler,” software designed at MIT and the Broad Institute. Seventy-two plates containing duplicates of nearly 10,000 small molecules were screened.
# Meg-01 = test: Polyploidization of Meg-01 cells; assay type: cell-based
# [2] = tested on: CD41+ megakaryocyte fraction; test: Polyploidization of primary human megakaryocytes (CD34+ cells cultured with TPO), CD41+ fraction; assay type: cell-based; conditions: CD34+ cells cultured with TPO 12 days, compound added after 9 days
# Method: FIG. 4 illustrates that DMF induces polyploidization of normal human megakaryocytes and that its activity is restricted to the CD41+ population. Human CD34+ cells were cultured with TPO for 12 days and then fixed and stained with DAPI. DMSO or DMF were added to the culture after 9 days. DNA content was then assessed by flow cytometry. Numbers above the bar indicate % of cells ≧8N.
# In collaboration with the Broad Institute, a high throughput screen for small molecules was conducted to identify small molecules that preferentially induce polyploidization or differentiation of megakaryocytes. We screened 10,000 compounds from the Broad's extensive collection of small molecules (including known bioactives, kinase and HDAC inhibitors, and natural products) to identify inducers of megakaryocyte polyploidization. The screen was performed in the following manner: 1) 4,000 CMK (human megakaryocytic leukemia) cells were plated into each well of a 384-well plate, 2) 100 n1 of compounds (yielding a final concentration of 10 μM) were pinned into the wells, 3) plates were incubated at 37° C. for 72 hours, 4) cells were fixed and stained with Hoescht, and 5) plates were imaged using an ImageXpressMICRO high content imager with 20× objective. Nine images per well were collected. 6) Data were analyzed using both MetaXpress software and “Cell Profiler,” software designed at MIT and the Broad Institute. […]
# [3] = tested on: CD41+ megakaryocytes obtained from human MPD bone marrow; assay type: cell-based; conditions: ET patient bone marrow, TPO, 5 days
# Method: Two lead compounds were tested on samples from both MPD (myeloproliferative disease) patients and AMKL (acute megakaryocytic leukemia) patients. […] Referring to FIG. 8, bone marrow samples from patients with AMKL were cultured in DMSO (control) or DMF (at 5 μM) for 14 days. Colonies were stained with anti-CD41 antibody and visualized by microcopy (not shown). Total numbers of CD41+ megakaryocyte colonies are shown.
# Mononuclear cells from bone marrow of patients were obtained by informed consent from patients at Northwestern Feinberg School of Medicine. Mononuclear cells were separated from marrow with Ficoll (GE Healthcare life sciences, Piscataway, N.J.) and resuspended in IMDM (Iscove's Modified Dulbecco's Media) media without serum. The cells were stained with 0.4% trypan blue solution for 5 minutes and live cells were counted. Live cells were assayed in CFU-MK (“Colony forming units-megakaryocytes”) and BFU-E (“Burst forming unit-erythroid”) assays as well as in liquid culture.
# Marrow cells from ET patients were also cultured in RPMI with 10% FBS in the presence of recombinant human TPO (thrombopoeitin, 50 ng/ml). […] DNA content of both CD41+ cells and CD41-negative cells was analyzed by utilizing a BD LSRII flow cytometer (BD Biosciences San Jose, Calif.).
# [4] = tested on: 6133/MPL megakaryocytic leukemia cells; test: 6133/MPL transplant model of AMKL, oral gavage treatment; assay type: in vivo, C57B1/6 mice; conditions: for lifespan: from day 3
# Method: FIG. 10 illustrates that DMF prevents AMKL in vivo. N=7 per group. […] transplant recipients were treated with two daily doses of vehicle, 33 mg/kg DMF, or 66 mg/kg DMF by oral gavage. Treatment with 33 or 66 mg/kg DMF led to statistically significant extensions in leukemia free survival (p=0.003 and 0.004 respectively).
# To determine whether polyploidization-inducing agents can serve as new therapies for AMKL, DMF was assessed in an animal model for AMKL. To this end, an animal model of AMKL was developed by transplanting 6133/MPL megakaryocytic leukemia cells into sub-lethally irradiated recipient C57B1/6 mice. The parental 6133 cell line, which is dependent upon TPO for survival, was derived from a leukemic mouse that expressed the AMKL t(1:22) fusion protein OTT-MAL by knock-in gene targeting (35). 6133 cells were then transduced with a MPLW515L expressing retrovirus, and stable TPO-independent clones were isolated. […] The disease was characterized by massive infiltration of CD41^+ cells in the bone marrow and spleen.
# After 3 days, the mice were treated with twice daily doses of DMF for 10 days. Seven mice were utilized per experimental condition. […] With 66 mg/kg nearly 50% of the mice remained disease free for at least 70 days. In contrast, all of mice fed only water (vehicle) died of leukemia by 20 days.
# C57BL/6 mice (purchased from the Jackson Laboratory, Bar Harbor, Me.) were sub-lethally irradiated with 600 rads. Mice were then anesthetized by an IP injection of mixture of Ketamine (100 mg/kg) and xylazine (5 mg/kg) 2 hours after irradiation. C57/B16 mice were intravenously injected with 1×10^6 6133/MPL cells, which were labeled with green fluorescent protein (GFP). Two different doses of DMF (33 mg/kg or 66 mg/kg) or water were administered to mice by oral gavage twice daily (b.i.d.) starting on the 3rd day after transplantation. For pre-treatment model, 6133/MPL cells were incubated with 5 μM DMF or DMSO for 24 hours. Live cells treated with DMF or […] were separated with Ficoll and transplanted into sub-lethally irradiated mice. Development of disease was assessed with presence of GFP-positive cells in the peripheral blood by FACS and by monitoring the health and body weight of the animals. Mice were sacrificed based on a protocol that includes assessment of morbidity by >20% loss of weight, severe anemia, scruffy appearance, and/or severe lethargy.
substance,measurement,setting,value
dimethylfasudil [DMF],positive in polyploidization screen,[1],positives
same,induction of polyploidization,Meg-01,potent inducer of polyploidization
same,polyploidization of primary human megakaryocytes,[2],potently induced polyploidization
same,polyploidization of bone marrow megakaryocytes,[3],potently induced polyploidization
same,leukemia free survival p,[4]; 33 mg/kg by oral gavage vs vehicle,0.003
same,lifespan,[4]; 33 mg/kg twice daily oral gavage for 10 days,significant extensions in lifespan
same,leukemia free survival p,[4]; 66 mg/kg by oral gavage vs vehicle,0.004
same,mice remaining disease free for at least 70 days,[4]; 66 mg/kg twice daily oral gavage,~50%
same,lifespan,[4]; 66 mg/kg twice daily oral gavage for 10 days,significant extensions in lifespan
same,long-term survival of mice,[4]; feeding to mice,up to 50%

# From US8933071B2, “Dimethyl fasudil for inducing polyploidization of megakaryocytes and for treating blood and bone marrow diseases and disorders” (Northwestern University, priority 2008, dated 2015)
